pIC50: −log10 of the molar value.
Legend:
CYP2D6 = molecular target: T1, CYP2D6 (Homo sapiens, UniProt P10635); experiment: CYP inhibition test (CYP2D6); type: in vitro ADME; settings: pooled human hepatic microsome, dextromethorphan O-demethylation
T1 construct: enzyme, pooled human hepatic microsome 0.2 mg protein/mL; from tissue; host or cells: pooled human hepatic microsome
Text: (§1) Using commercially available pooled human hepatic microsome, and employing, as markers, 7-ethoxyresorufin O-deethylation (CYP1A2), tolbutamide methyl-hydroxylation (CYP2C9), mephenyloin 4′-hydroxylation (CYP2C19), dextromethorphan O-demethylation (CYP2D6), and terfenedine hydroxylation (CYP3A4) as typical substrate metabolism reactions of human main five CYP enzyme forms (CYP1A2, 2C9, 2C19, 2D6, 3A4), an inhibitory degree of each metabolite production amount by a compound of the present invention was assessed. […] After the centrifugation at 3000 rpm for 15 minutes, resorufin (CYP1A2 metabolite) in the supernatant was quantified by a multi-label counter and hydroxytolbutamide (CYP2C9 metabolite), 4′-hydroxymephenyloin (CYP2C19 metabolite), dextrorphan (CYP2D6 metabolite), and terfenadine alcohol metabolite (CYP3A4 metabolite) were quantified by LC/MS/MS. Addition of only DMSO being a solvent dissolving a compound to a reaction system was adopted as a control (100%), remaining activity (%) was calculated and IC50 was calculated by reverse presumption by a logistic model using a concentration and an inhibition rate.

CYP3A4 = CYP3A4 (Homo sapiens, UniProt P08684); experiment: CYP inhibition test (CYP3A4); type: in vitro ADME; parameters: enzyme, pooled human hepatic microsome 0.2 mg protein/mL; from tissue; host or cells: pooled human hepatic microsome; settings: pooled human hepatic microsome, terfenedine hydroxylation
Sequence of CYP3A4 (P08684 whole entry): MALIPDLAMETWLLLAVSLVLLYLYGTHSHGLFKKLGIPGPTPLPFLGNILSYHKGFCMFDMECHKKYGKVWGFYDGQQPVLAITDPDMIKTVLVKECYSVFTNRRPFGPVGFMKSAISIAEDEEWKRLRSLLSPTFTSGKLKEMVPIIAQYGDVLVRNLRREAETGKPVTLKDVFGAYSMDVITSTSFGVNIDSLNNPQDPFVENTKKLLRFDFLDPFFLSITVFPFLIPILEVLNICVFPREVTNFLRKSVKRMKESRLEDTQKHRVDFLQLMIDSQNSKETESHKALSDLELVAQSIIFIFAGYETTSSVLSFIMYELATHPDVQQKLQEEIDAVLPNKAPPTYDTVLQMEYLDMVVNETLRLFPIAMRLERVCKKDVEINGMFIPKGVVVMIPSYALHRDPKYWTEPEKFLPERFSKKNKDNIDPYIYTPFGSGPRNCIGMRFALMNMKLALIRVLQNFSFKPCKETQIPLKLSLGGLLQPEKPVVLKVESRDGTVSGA
Text: as §1

Recombinant human BACE1 = molecular target: T2, Recombinant human BACE1 (Homo sapiens, UniProt P56817); experiment: Assay of BACE1 inhibitory activity; type: biochemical; settings: Recombinant human BACE1, 30° C., 3 hours, pH 5.0; read-out: IC50 (50% inhibitory concentration against the enzymatic activity)
T2 construct: purchased R&D Systems
T2 sequence (P56817 46-501): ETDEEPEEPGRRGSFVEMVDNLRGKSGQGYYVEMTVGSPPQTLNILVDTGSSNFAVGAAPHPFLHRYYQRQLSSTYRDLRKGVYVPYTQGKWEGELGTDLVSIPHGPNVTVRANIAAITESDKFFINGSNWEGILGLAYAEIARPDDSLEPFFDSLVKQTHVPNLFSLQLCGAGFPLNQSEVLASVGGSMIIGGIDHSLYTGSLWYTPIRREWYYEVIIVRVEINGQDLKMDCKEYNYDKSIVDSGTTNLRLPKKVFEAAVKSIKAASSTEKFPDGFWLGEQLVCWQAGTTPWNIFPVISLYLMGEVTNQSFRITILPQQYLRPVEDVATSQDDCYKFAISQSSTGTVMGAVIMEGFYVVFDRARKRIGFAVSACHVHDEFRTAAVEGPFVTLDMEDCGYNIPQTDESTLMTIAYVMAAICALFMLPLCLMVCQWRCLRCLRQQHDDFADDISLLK
Method: 48.5 μL of substrate peptide solution (Biotin-XSEVNLDAEFRHDSGC-Eu: X=ε-amino-n-capronic acid, Eu=Europium cryptate) was added to each well of 96-hole half-area plate (a black plate: Costar), and after addition of 0.5 μl of the compound of the present invention (N,N′-dimethylformamide solution) and 1 μl of Recombinant human BACE1(R&D Systems), the reaction mixture was incubated at 30° C. for 3 hours. The substrate peptide was synthesized by reacting Cryptate TBPCOOH mono SMP (CIS bio international) with Biotin-XSEVNLDAEFRHDSGC (Peptide Institute, Inc.). The final concentrations of the substrate peptide and Recombinant human BACE1 were adjusted to 18 nmol/L and 7.4 nmol/L, respectively, and the reaction was performed in sodium acetate buffer (50 mmol/L sodium acetate, pH 5.0, 0.008% Triton X-100). After the incubation for reaction, 50 μl of 8.0 μg/ml Streptavidin-XL665 (CIS bio international) dissolved in phosphate buffer (150 mmol/L K2HPO4—KH2PO4, pH 7.0, 0.008% Triton X-100, 0.8 mol/L KF) was added to each well and left stand at 30° C. for 1 hour. After then, fluorescence intensity was measured (excitation wavelength: 320 nm, measuring wavelength: 620 nm and 665 nm) using Wallac 1420 multilabel counter (Perkin Elmer life sciences). Enzymatic activity was determined from counting ratio of each wavelength (10,000×Count 665/Count 620) and 50% inhibitory concentration against the enzymatic activity (IC50) was calculated.

CYP2C9 = molecular target: T3, CYP2C9 (Homo sapiens, UniProt P11712); experiment: CYP inhibition test (CYP2C9); type: in vitro ADME; settings: pooled human hepatic microsome, tolbutamide methyl-hydroxylation
T3 construct: enzyme, pooled human hepatic microsome 0.2 mg protein/mL; from tissue; host or cells: pooled human hepatic microsome
T3 sequence (P11712 whole entry): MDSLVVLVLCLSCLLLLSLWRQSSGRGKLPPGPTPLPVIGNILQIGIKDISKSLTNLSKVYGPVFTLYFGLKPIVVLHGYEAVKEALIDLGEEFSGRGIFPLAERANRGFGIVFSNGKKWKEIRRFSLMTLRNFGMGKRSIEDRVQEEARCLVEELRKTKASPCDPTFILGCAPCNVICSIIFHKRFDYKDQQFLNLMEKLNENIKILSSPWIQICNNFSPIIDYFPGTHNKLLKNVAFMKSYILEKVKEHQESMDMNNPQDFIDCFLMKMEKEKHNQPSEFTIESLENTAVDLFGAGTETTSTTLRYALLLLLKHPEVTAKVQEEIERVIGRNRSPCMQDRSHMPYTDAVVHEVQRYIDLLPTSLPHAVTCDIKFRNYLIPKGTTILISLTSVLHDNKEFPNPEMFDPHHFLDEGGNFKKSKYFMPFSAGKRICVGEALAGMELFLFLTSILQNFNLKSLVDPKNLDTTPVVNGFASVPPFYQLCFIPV
Text: as §1

CYP2C19 = molecular target: T4, CYP2C19 (Homo sapiens, UniProt P33261); experiment: CYP inhibition test (CYP2C19); type: in vitro ADME; settings: pooled human hepatic microsome, mephenyloin 4′-hydroxylation
T4 construct: enzyme, pooled human hepatic microsome 0.2 mg protein/mL; from tissue; host or cells: pooled human hepatic microsome
T4 sequence (P33261 whole entry): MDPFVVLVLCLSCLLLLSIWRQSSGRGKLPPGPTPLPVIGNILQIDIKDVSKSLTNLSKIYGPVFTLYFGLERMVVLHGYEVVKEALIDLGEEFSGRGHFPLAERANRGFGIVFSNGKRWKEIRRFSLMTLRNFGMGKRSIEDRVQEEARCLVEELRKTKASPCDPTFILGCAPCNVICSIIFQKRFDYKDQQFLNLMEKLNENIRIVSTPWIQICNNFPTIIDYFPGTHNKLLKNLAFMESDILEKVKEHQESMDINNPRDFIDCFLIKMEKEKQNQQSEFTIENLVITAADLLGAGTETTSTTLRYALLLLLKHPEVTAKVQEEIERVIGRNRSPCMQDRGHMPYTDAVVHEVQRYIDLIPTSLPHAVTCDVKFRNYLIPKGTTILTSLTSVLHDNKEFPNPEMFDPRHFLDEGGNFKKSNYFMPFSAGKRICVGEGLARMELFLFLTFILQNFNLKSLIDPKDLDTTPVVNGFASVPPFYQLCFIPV
Text: as §1

CYP1A2 = molecular target: T5, CYP1A2 (Homo sapiens, UniProt P05177); experiment: CYP inhibition test (CYP1A2); type: in vitro ADME; settings: pooled human hepatic microsome, 7-ethoxyresorufin O-deethylation
T5 construct: enzyme, pooled human hepatic microsome 0.2 mg protein/mL; from tissue; host or cells: pooled human hepatic microsome
T5 sequence (P05177 1-516): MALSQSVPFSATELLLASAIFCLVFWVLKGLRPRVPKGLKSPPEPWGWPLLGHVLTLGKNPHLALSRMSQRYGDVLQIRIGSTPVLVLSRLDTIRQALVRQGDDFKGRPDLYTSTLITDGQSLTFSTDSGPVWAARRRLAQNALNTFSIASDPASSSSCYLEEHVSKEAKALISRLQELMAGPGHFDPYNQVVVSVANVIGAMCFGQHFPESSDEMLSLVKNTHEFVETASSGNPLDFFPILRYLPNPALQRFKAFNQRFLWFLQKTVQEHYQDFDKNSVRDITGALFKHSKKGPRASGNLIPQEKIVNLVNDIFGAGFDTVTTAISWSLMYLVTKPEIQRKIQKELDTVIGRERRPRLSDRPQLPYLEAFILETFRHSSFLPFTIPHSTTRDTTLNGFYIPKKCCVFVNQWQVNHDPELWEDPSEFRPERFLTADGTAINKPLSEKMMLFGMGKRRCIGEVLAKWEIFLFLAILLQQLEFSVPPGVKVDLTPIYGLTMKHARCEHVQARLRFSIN
Text: as §1

[1] = Metabolism stability test; type: in vitro ADME; settings: human liver microsomes 0.5 mg protein/mL, 37° C., 30 minutes, NADPH
Method: Using a commercially available pooled human hepatic microsomes, a compound of the present invention is reacted for a constant time, a remaining rate is calculated by comparing a reacted sample and an unreacted sample, thereby, a degree of metabolism in liver of the compound of the present invention is assessed.
A reaction is performed (oxidative reaction) at 37° C. for 0 minute or 30 minutes in the presence of 1 mmol/L NADPH in 0.2 mL of a buffer (50 mmol/L Tris-HCl pH 7.4, 150 mmol/L potassium chloride, 10 mmol/L magnesium chloride) containing 0.5 mg protein/mL of human liver microsomes. After the reaction, 50 μL of the reaction solution is added to 100 μL of a methanol/acetonitrile=1/1 (v/v), mixed and centrifuged at 3000 rpm for 15 minutes. The compound of the present invention in the supernatant is quantified by LC/MS/MS, and a remaining amount of the compound of the present invention after the reaction is calculated, letting a compound amount at 0 minute reaction time to be 100%.

T1 sequence (P10635 whole entry): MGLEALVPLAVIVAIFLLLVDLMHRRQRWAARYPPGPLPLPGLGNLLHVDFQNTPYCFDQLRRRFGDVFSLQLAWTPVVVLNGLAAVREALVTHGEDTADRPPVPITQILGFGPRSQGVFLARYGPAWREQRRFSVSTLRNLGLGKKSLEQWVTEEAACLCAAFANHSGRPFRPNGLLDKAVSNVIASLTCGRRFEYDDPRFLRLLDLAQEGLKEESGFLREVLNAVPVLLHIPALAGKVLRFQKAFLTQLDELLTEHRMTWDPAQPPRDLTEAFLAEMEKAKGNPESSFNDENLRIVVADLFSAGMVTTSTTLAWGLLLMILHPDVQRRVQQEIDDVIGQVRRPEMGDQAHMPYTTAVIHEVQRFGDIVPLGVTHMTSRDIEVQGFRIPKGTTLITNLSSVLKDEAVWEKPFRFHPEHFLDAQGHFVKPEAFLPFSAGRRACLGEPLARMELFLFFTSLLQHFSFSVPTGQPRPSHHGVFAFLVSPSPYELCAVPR

pIC50 (CYP2D6) | pIC50 (CYP3A4) | pIC50 (Recombinant human BACE1) | pIC50 (CYP2C9) | pIC50 (CYP2C19) | pIC50 (CYP1A2) | remaining amount after the reaction [1] [%] | SMILES
< 4.70 | < 4.70 | ≥ 6.00 | < 4.70 | < 4.70 | < 4.70 | – | CC1(c2cc(NC(=O)c3ncc(F)cc3F)ccc2F)Cc2ccncc2C(N)=N1 (centres unmarked) [Compound I-2]
– | – | ≥ 6.00 | – | – | – | 88 | CC1(c2cc(NC(=O)c3ccc(C#N)cn3)ccc2F)Cc2cnccc2C(N)=N1 (centres unmarked) [Compound I-5]

From US8927721B2, “Naphthyridine derivative” (Shionogi & Co., Ltd., priority 2010, dated 2015)
